# Results published in PubChem BioAssay AID624491 (Broad Institute, 2012).
# Tested on: D54 ERlucT glycosylation luciferase reporter, luminescence, 24 h
# Test: N-linked glycosylation inhibitors, luciferase reporter, dose response, D54 ERlucT cells, luminescence, cherry-picks (AID 624491);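 also: signal gain reflects blocked N-linked glycosylation of a luciferase reporter; actives raise luciferase signal so AC26 marks activators of the reporter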
row,Structure (SMILES),AC26 [nM]
1,CCOC(=O)c1cc2sccc2n1CC(=O)N1CCc2ccccc21,7500
2,O=[N+]([O-])c1ccc(Sc2cc[n+]([O-])c3ccccc23)c([N+](=O)[O-])c1,5960
3,O=C(c1cccc(Oc2ccccc2)c1)N1CCN(c2ccccn2)CC1,2190
4,Cc1cccc(N2CCN(C(=O)c3ccncc3)CC2)c1C,11400
5,Cc1ccc2nc(Cl)c(/C=C/C(=O)c3ccco3)cc2c1,7890
6,COc1ccc(C(=O)/C=C/c2ccc(OC)c(O)c2)c(F)c1,4860
7,Cc1ccc(NC(=O)c2ccc(Cl)cc2[N+](=O)[O-])nc1,1080
8,COc1cc(C(=O)N/N=C/c2cc([N+](=O)[O-])cs2)cc(OC)c1OC,349
9,CCN1C(=O)c2cccc3c(S(=O)(=O)N4CCC(C)CC4)ccc1c23,1720
10,COc1ccc(OC)c2nc3c(C(=O)NCCN(C)C)cccc3nc12,187
11,Cc1nn(-c2ccccc2)c2c1CC(=O)Nc1ccccc1-2,329
12,Cc1ccc(-c2nc(NCCCN(C)C)c3ccccc3n2)cc1,5650
13,O=C(/C=C/Sc1ccccc1)c1ccccc1,2150
14,Cc1ccc(-n2nc(C)c(/C=N/NC(=O)c3cccs3)c2Cl)cc1,4230
15,COc1ccc2[nH]c3c(N4CCC(O)(c5cccc(C(F)(F)F)c5)CC4)ncnc3c2c1,2740
16,O=C(N/N=C/c1ccco1)c1cc(-c2ccncc2)nc2ccccc12,285
17,c1ccc(CNc2ncnc3c2cnn3-c2ccccc2)cc1,8130
18,O=C(Nc1cccc(F)c1)c1cc(S(=O)(=O)N2CCOCC2)ccc1N1CCCC1,947
19,CC1CN(C(=O)c2ccc(COc3ccc(C(C)C)cc3)o2)CC(C)O1 (stereo not drawn),3780
20,COc1ccc(NC(=O)CSc2c3c(nc4ccccc24)CCCC3)c(OC)c1,9240
21,COC(=O)c1ccc(C(=O)NC2CCCc3c2cnn3-c2ccccc2F)nc1 (stereo not drawn),4140
22,NC(=O)CC(NC(=O)Cc1ccc(Br)cc1)c1ccc(NC2CC3CCC2C3)c([N+](=O)[O-])c1 (stereo not drawn),32.6
23,C[C@@]12C(=O)Nc3cc(Cl)ccc3C(=O)N1[C@H]1c3cc(Cl)ccc3OC[C@@H]1[C@@H]2c1ccccc1,4040
24,COC(=O)c1ccccc1-c1ccc(C(c2c(C)[nH][nH]c2=O)c2c(C)[nH][nH]c2=O)o1,5960
25,COc1ccc(S(=O)(=O)N2N=C(C)Oc3ccccc3C2=O)cc1,1250
26,COc1ccc2c(c1)[C@H]1[C@H](CO2)[C@H](c2ccccc2)[C@]2(C)C(=O)Nc3ccccc3C(=O)N12,278

row,Structure (SMILES),AC26 [nM]
1,CCn1c2ccccc2c2cc(NC(=O)COC(=O)c3ccccc3F)ccc21,4200
2,CCCCCCCCCCCCCCCCCCNc1ccn(C2OC(COP(=O)(O)OCC3OC(n4cc(F)c(=O)[nH]c4=O)CC3O)C(O)C2O)c(=O)n1 (stereo not drawn),3970
3,CC1CCCCN1C(=O)NC12CC3CC(CC(C3)C1)C2 (stereo not drawn),4170
4,Cn1c(=O)n(C)c2cc(NS(=O)(=O)c3ccccc3)ccc21,3430
5,Cc1cccc([C@@H]2[C@@H]3C(=O)N(Cc4ccccc4)C(=O)[C@@H]3[C@]3(Cc4ccccc4)C(=O)N(c4cccc(F)c4)C(=O)N23)c1,11400
6,Cn1cnc([N+](=O)[O-])c1Sc1nc2ccccc2[nH]1,797
7,COc1ccc(Nc2nc(C)nc3sc4c(c23)CCC4)cc1O,11400
8,Cc1cc(=O)oc2cc(NC(=O)c3cccc(S(C)(=O)=O)c3)ccc12,2310
9,COc1cccc(C(NC(C)=O)c2nc(-c3ccc(F)cc3OC)cs2)c1 (stereo not drawn),105
10,O=C(/C=C/c1cccc([N+](=O)[O-])c1)c1ccc2c(c1)OCCO2,3330
11,Cc1nnc2c3ccccc3c(-c3cccs3)nn12,3170
12,Cc1ccc(-c2nn3c(C)nnc3c3ccccc23)cc1S(=O)(=O)N1CCN(CCO)CC1,3870
13,Cc1nnc2c(NC3CCCCC3)nc3ccccc3n12,2760
14,CCN(CC)CCNc1cccc2sc3ccccc3c(=O)c12,4840
15,CCOC(=O)COc1cccc2c(=O)n(CC(=O)NCc3ccccc3)ccc12,2540
16,CCOc1ccccc1NC(=O)CN(c1ccc(OC)cc1)S(=O)(=O)c1c(C)noc1C,4150
17,NNC(=O)c1oc2nc(-c3ccco3)cc(-c3ccco3)c2c1N,4260
18,COc1ccc(/C=C/C(=O)c2ccc(Cl)s2)cc1O,4730
19,CCN(CC)CCCNc1nc2cc(OC)c(OC)cc2c2nc(-c3ccccc3)nn12,811
20,COc1ccc(N2CCc3c(C)nc4c(OC)cccc4c32)cc1,368
21,COc1cccc2nc3c(C(=O)NCCN(C)C)cccc3cc12,164
22,Cn1c(-c2ccccc2)c(/C=N/NC(=O)c2ccc(O)cc2)c2ccccc21,647
23,CCn1c2ccccc2c2cc(NC(=O)COC(=O)c3ccc(O)cc3)ccc21,5820
24,Cc1ccc(Nc2nc(-c3sc(C)nc3C)cs2)cc1,481
25,Cc1ccc(-c2cc(C(=O)Nc3ccncc3)c3ccccc3n2)cc1,1910
26,C=CCn1c(SCc2c(C)noc2C)nc2sc(C)c(C)c2c1=O,891

row,Structure (SMILES),AC26 [nM]
1,CC(=O)OC12COC1CC(O)C1(C)C(=O)C(O)C3=C(C)C(O)CC(O)(C(OC(=O)c4ccccc4)C21)C3(C)C (stereo not drawn),1120
2,Cc1ccc(C(=O)N/C(=C\c2cccs2)C(=O)NCCc2c[nH]c3ccccc23)cc1C,4860
3,Cc1nc2c3cc(Cl)ccc3n(CCN3CCCCC3)c2s1,896
4,CC(C)CCNC(=O)CCCOc1cc(=O)n(C)c2ccccc12,4270
5,COc1cc(C(=O)N/N=C(\C)c2ccc3c(c2)OCO3)cc(OC)c1OC,1260
6,Cc1nc(N=C(N)N)nc2c(C)cccc12,2200
7,Cc1ccccc1OCC(O)CN1CCN(CCN2C(=O)c3cccc4cccc(c34)C2=O)CC1 (stereo not drawn),13500
8,Cc1ccc(C(=O)Nc2ccc(NC(=O)c3cccs3)cc2)c(C)c1,8550
9,CN(C)CCCNc1c2c(nc3ccccc13)CCC2,9560
10,COCCCNc1nnc(Cc2ccc(Cl)cc2)c(=O)[nH]1,1050
11,O=C(NC(=C(Cl)Cl)S(=O)(=O)c1ccc(Cl)cc1)c1ccccc1,594
12,COc1cc2nc(NC(=O)c3ccc(F)cc3Cl)sc(=O)c2cc1OC,1900
13,C=CCn1cccc(/C=C/C(=O)c2ccc(C(C)(C)C)cc2)c1=S,1290
14,O=C(CNc1cccc2ccccc12)N/N=C/C(Br)=C/c1ccccc1,17100
15,CC(C)Oc1ccc(F)cc1-c1cc(C(=O)Nc2ccc(C(C)(C)C)cc2)[nH]n1,2040
16,COc1cc(F)ccc1-c1csc(C(NC(C)=O)c2ccccc2)n1 (stereo not drawn),11.1
17,O=C(CCl)Nc1cn(-c2ccccc2)nc1-c1ccc(F)cc1,3860
18,COc1cc2c(cc1OC)C(c1ccccc1)N(C(=O)c1ccccc1)CC2 (stereo not drawn),869
19,CC(C)(C)S(=O)(=O)N1C[C@@H]2CC/C=C\C/C(c3ccccc3)=C\2[C@H]1CCO,1050
20,C=CCOc1ccc(/C=C2\SC(N3CCCCC3)=NC2=O)cc1,5420
21,COc1ccc2nc3c(cc2c1)c(NC(=O)CC(C)C)nn3CC(C)C,8100
22,O=C(CN1C(=O)NC2(CCCCCC2)C1=O)Nc1ccc2c(c1)CCC2,1970
23,CC1(C(=O)Nc2ccc(Cl)cc2)Cc2c(-c3cccc(C(N)=O)c3)ccnc2O1 (stereo not drawn),15400
24,CCOC(=O)[C@H]1[C@H]2COc3ccc(Br)cc3[C@@H]2N2C(=O)c3cc(OC)c(OC)cc3NC(=O)[C@@]12C,4040
25,COc1cc(C(=O)Nc2cc3c(cc2N2CCCCC2)n(C)c(=O)n3C)cc(OC)c1OC,3870
26,CC(C)n1c(/C=C/[C@H](O)C[C@H](O)CC(=O)O)c(-c2ccc(F)cc2)c2ccccc21,77.8
